According to patent US11141413B2, “Method of treating renal cell carcinoma using N-(4-(6,7-dimethoxyquinolin-4-yloxy)phenyl)-N′-(4-fluorophenyl)cyclopropane-1,1-dicarboxamide, (2S)-hydroxybutanedioate” (Exelixis, Inc., priority 2016, dated 2021):

Experiments:
[1] = biological target: MRP2 (Homo sapiens, UniProt Q92887); experiment: Drug transporter systems in vitro; assay type: in vitro ADME
[2] = biological target: CYP1A2 (Homo sapiens, UniProt P05177); experiment: In vitro CYP inhibition by cabozantinib; assay type: in vitro ADME
[3] = system: pregnant rats; experiment: Embryo-fetal development study in pregnant rats
[4] = system: bacteria; experiment: Bacterial reverse mutation (Ames) assay; conditions: in vitro
[5] = system: female rats; experiment: 14-day general toxicology study in female rats; assay type: in vivo, rat; conditions: 5 mg/kg/day for 14 days
[6] = biological target: TIE-2 (Homo sapiens, UniProt Q02763); experiment: In vitro biochemical and/or cellular kinase assays
[7] = Pharmacokinetics in patients with hepatic impairment; assay type: in vivo, human
Text: Patients with severe hepatic impairment have not been studied.

[8] = system: human lymphocytes; experiment: In vitro cytogenetic assay
[9] = biological target: T1, CYP2C8 (Homo sapiens, UniProt P10632); experiment: Metabolic pathways in vitro: effect of CYP inhibition on cabozantinib metabolite formation; assay type: in vitro ADME
[10] = biological target: T1, CYP2C8; experiment: In vitro CYP inhibition by cabozantinib; assay type: in vitro ADME
[11] = biological target: CYP3A4 (Homo sapiens, UniProt P08684); experiment: Clinical drug interaction: strong CYP3A4 inhibitor ketoconazole on cabozantinib; assay type: in vivo; parameters: from tissue; conditions: with ketoconazole 400 mg daily for 27 days, healthy subjects
[12] = biological target: KIT (Homo sapiens, UniProt P10721); experiment: In vitro biochemical and/or cellular kinase assays
[13] = biological target: AXL (Homo sapiens, UniProt P30530); experiment: In vitro biochemical and/or cellular kinase assays
[14] = system: advanced renal cell carcinoma; conditions: nivolumab study; cited from earlier work

T1 sequence (P10632 whole entry): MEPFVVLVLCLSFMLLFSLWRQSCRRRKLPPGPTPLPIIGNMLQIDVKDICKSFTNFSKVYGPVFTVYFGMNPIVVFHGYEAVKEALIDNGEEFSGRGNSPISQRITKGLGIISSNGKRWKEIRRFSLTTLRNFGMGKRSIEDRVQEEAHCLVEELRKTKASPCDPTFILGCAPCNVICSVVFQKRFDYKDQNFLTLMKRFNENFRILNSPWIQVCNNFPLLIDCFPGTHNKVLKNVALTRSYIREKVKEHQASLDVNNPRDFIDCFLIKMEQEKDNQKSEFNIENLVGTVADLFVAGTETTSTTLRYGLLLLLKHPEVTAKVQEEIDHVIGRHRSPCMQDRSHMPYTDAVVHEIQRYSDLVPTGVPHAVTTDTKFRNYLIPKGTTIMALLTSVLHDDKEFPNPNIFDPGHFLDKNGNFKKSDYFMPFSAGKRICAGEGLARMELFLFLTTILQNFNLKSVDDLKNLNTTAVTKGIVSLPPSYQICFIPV
Chain of KIT (P10721 26-976): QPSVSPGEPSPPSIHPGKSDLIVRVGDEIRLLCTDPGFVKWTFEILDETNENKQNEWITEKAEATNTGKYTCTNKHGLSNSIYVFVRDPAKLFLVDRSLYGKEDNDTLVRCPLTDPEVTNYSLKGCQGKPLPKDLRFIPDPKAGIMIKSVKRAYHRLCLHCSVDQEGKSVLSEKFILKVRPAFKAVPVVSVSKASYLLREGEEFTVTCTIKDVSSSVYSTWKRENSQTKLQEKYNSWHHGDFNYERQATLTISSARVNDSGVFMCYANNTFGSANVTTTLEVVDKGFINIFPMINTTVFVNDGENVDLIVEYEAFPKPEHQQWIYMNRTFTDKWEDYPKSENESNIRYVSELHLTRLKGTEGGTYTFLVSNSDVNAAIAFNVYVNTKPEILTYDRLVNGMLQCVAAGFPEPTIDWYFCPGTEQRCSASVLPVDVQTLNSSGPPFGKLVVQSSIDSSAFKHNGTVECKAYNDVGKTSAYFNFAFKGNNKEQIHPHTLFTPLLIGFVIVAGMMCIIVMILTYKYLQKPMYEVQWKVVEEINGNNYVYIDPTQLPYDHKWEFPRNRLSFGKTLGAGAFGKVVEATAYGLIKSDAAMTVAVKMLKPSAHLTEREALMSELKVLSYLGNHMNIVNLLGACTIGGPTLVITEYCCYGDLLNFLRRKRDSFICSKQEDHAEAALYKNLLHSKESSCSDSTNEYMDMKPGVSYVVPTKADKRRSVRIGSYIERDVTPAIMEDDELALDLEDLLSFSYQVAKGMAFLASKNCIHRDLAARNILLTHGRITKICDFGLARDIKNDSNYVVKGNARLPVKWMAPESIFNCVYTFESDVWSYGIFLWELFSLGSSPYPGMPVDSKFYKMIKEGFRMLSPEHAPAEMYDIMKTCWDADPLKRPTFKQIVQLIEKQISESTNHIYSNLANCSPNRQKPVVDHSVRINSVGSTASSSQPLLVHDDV
Chain of CYP3A4 (P08684 whole entry): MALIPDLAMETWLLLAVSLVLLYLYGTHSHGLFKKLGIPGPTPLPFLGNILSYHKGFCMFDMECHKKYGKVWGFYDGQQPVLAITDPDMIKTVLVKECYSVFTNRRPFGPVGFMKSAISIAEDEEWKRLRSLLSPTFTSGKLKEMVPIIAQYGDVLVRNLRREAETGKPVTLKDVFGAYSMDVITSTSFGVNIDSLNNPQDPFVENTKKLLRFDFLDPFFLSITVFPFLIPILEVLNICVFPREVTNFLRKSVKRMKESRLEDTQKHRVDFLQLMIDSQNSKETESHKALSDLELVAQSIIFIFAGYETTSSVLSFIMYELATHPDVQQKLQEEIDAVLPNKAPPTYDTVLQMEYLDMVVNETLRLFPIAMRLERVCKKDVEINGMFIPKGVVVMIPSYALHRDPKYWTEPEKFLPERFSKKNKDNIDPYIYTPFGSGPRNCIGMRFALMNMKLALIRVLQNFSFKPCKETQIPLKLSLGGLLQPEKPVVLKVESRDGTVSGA
Chain of MRP2 (Q92887 whole entry): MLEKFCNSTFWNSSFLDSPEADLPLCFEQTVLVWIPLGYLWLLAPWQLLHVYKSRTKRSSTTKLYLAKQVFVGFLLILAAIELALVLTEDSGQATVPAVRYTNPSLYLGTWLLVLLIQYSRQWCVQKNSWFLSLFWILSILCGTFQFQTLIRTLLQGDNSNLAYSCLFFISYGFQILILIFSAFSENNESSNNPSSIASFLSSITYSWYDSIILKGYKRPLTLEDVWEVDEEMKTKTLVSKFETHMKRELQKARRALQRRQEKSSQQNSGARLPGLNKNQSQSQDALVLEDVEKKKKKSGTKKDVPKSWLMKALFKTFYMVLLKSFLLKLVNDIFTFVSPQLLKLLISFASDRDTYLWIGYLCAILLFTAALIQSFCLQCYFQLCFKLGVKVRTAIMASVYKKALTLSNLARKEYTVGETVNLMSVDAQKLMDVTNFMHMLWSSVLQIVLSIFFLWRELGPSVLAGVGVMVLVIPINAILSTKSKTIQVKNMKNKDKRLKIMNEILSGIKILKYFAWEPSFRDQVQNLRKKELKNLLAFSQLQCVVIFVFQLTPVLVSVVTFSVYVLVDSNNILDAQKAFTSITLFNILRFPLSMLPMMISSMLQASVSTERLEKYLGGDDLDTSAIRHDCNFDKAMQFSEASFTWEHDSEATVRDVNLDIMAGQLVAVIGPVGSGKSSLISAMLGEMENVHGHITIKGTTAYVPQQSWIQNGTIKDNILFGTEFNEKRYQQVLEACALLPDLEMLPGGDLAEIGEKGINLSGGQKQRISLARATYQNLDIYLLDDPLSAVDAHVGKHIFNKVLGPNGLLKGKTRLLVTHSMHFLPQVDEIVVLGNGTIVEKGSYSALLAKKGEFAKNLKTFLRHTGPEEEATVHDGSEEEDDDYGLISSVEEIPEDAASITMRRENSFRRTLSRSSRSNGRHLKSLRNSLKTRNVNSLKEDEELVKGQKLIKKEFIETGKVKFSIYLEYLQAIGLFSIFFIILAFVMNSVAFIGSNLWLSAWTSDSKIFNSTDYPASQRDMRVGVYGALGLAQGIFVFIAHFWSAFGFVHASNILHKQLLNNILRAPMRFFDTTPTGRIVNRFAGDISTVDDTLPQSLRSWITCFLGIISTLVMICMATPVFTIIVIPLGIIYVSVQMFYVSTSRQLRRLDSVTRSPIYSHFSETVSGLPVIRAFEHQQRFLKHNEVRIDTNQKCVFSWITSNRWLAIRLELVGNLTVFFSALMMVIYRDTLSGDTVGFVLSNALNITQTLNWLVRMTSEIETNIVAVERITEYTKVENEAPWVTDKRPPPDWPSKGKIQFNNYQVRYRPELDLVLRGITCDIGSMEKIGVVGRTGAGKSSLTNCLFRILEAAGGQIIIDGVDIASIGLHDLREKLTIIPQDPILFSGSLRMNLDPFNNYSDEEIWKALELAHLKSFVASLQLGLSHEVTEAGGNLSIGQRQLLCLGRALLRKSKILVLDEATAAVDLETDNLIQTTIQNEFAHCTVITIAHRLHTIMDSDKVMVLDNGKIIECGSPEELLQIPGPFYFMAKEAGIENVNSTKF
Chain of AXL (P30530 26-894): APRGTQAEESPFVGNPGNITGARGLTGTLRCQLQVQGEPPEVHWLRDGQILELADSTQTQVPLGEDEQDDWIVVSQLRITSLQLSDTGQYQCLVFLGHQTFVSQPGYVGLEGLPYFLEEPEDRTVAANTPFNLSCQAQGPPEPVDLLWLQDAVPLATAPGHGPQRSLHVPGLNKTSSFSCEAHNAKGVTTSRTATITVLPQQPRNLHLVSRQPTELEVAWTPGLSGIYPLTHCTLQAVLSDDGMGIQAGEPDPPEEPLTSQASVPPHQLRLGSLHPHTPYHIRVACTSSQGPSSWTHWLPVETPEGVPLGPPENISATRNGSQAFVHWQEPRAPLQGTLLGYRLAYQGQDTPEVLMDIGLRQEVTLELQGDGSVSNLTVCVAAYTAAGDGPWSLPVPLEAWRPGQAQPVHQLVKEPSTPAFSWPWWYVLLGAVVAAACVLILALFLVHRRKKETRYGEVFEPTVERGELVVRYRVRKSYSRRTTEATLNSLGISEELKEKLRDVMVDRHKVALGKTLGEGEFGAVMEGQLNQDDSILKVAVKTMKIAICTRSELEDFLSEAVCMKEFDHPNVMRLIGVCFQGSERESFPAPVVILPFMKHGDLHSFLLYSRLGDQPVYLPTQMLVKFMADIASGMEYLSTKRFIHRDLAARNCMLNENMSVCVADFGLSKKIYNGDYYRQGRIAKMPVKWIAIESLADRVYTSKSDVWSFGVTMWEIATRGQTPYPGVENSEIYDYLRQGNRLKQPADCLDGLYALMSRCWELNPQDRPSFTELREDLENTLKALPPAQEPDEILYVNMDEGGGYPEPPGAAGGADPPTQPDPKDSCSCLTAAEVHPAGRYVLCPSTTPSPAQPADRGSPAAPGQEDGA
Chain of CYP1A2 (P05177 whole entry): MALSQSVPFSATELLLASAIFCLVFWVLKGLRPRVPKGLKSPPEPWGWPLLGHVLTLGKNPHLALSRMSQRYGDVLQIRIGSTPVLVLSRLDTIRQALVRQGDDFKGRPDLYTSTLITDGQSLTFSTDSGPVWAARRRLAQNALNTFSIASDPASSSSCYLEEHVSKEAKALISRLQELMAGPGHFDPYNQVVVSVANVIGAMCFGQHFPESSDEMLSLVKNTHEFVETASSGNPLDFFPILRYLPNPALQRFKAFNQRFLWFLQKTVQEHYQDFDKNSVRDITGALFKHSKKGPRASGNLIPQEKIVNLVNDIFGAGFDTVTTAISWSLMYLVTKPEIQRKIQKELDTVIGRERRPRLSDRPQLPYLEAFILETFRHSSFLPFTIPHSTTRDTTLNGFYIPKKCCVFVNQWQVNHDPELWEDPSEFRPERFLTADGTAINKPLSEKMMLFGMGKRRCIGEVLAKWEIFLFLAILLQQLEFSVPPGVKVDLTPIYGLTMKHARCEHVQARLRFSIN

Compound: COc1cc2nccc(Oc3ccc(NC(=O)C4(C(=O)Nc5ccc(F)cc5)CC4)cc3)c2cc1OC [cabozantinib]
- MRP2 substrate status in vitro [1]: substrate
- Inhibition of CYP1A2 in vitro [2]: does not inhibit
- Dose causing increased embryo-fetal lethality compared to controls ([3]; daily oral administration throughout organogenesis): 0.03 mg/kg
- Dose with delayed ossification and skeletal variations ([3]; female, rat, in vivo, 0.1 mg/kg/day): 0.1 mg/kg/day
- Mutagenicity [4]: not mutagenic
- Ovarian finding [5]: exhibited ovarian necrosis
- Inhibition of tyrosine kinase activity [6]: inhibits
- Exposure in patients with mild to moderate hepatic impairment ([7]; human, in vivo): Increased exposure
- Increase in exposure (AUC0-inf) ([7]; mild (C-P A) hepatic impairment): 81%
- Increase in exposure (AUC0-inf) ([7]; moderate (C-P B) hepatic impairment): 63%
- Clastogenicity [8]: not clastogenic
- Effect of inhibition of CYP2C8 on cabozantinib metabolite formation [9]: no effect
- Inhibition of CYP2C8 in vitro [10]: inhibitor
- Increase in single-dose plasma cabozantinib exposure (AUC0-inf) [11]: 38%
- Inhibition of tyrosine kinase activity [12]: inhibits
- Inhibition of tyrosine kinase activity [13]: inhibits

Compound: CO[C@H]1C[C@@H]2CC[C@@H](C)[C@@](O)(O2)C(=O)C(=O)N2CCCC[C@H]2C(=O)O[C@H]([C@H](C)C[C@@H]2CC[C@@H](OCCO)[C@H](OC)C2)CC(=O)[C@H](C)/C=C(\C)[C@@H](O)[C@@H](OC)C(=O)[C@H](C)C[C@H](C)/C=C/C=C/C=C/1C [everolimus]
- Median OS of comparator arm [14]: 19.6 months
- Median PFS of control arm [14]: 4.4 months
